Like-named read-outs stand apart in the source and are kept apart here.
Key:
HT-29 = assay: Inhibition of cell growth by counting cells, HT-29; type: cell-based, human; settings: read-out: IC50 (molar) HT-29
In short: (§1)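 Cells were seeded at 1×10^4 per well in EMEM with 5% FCS containing test sample and incubated 3 days at 37 °C, 5% CO2, in duplicate. Cells were then trypsinized and Coulter-counted, and growth was expressed relative to drug-free controls. IC50 (50% growth inhibition) was taken from dose-response curves.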

A-549 = assay: Inhibition of cell growth by counting cells, A-549; type: cell-based, human; settings: read-out: IC50 (molar) A-549
In short: as §1

DU-145 = assay: Inhibition of cell growth by counting cells, DU-145; type: cell-based, human; settings: read-out: IC50 (molar) DU-145
Experimental: (§2) 1°.—Inhibition of Cell Growth by Counting Cells.
(§3) This form of the assay employs 24 well multidishes of 16 mm diameter (Bergeron, 1984; Schroeder, 1981). The tumor cell lines employed are: P-388 (ATCC CCL 46), suspension culture of a lymphoid neoplasm from a DBA/2 mouse; A-549 (ATCC CCL 185), monolayer culture of a human lung carcinoma; HT-29 (ATCC HTB-38), monolayer culture of a human colon carcinoma; MEL-28 (ATCC HTB-72), monolayer culture of a human melanoma and DU-145 (ATCC HTB-81), monolayer culture of a human prostate carcinoma.
(§4) Cells were maintained, in logarithmic phase of growth in Eagle's Minimum Essential Medium, with Earle's Balanced Salts, with non-essential amino acids, with 2.0 mM L-Glutamine, without sodium bicarbonate (EMEM/neaa), supplemented with 10% Fetal Calf Serum (FCS), 10^−2 M. sodium bicarbonate and 0.1 U/l penicillin G+0.1 g/l streptomycin sulfate. For the experiments, cells are harvested from subconfluent cultures using trypsin and resuspended in fresh medium before plating.
(§5) A-549, HT-29, MEL-28 and DU-145 cells were seeded into 16 mm diameter wells at 1×10^4 cells per well in 1 ml aliquots of EMEM 5% FCS containing different concentrations of the sample to be tested. A separate set of cultures without drug was seeded as control of growth, to ensure that cells remained in exponential phase of growth. All determinations are carrying out in duplicate. After three days of incubation at 37° C., 5% CO2 in a 98% humid atmosphere cells were stained with 0.1% crystal violet. An approximately IC50 was determined by comparing the growth in wells with drug to the growth in wells control.
(§6) For quantifying the activity, after the incubation time, cells are trypsinized and counted in a Coulter Counter ZM. All counts (net cells per well), represent the average of duplicate wells. % G, percent of growth relative to cultures without drug. The results of these assays are used to generate dose-response curves from which more precise IC50 values are determined (sample concentration which produces 50% cell growth inhibition).
(§7) Obtained results may predict the usefulness of a certain drug as a potential cancer treatment. For this technique, compounds which show IC50 values smaller than 1 μg/ml are selected to continue with further studies. IC50's data allow to predict that not only could a drug be cystostatic, but also it could have a potential in terms of tumor reduction.

MEL-28 = assay: Inhibition of cell growth by counting cells, MEL-28; type: cell-based, human; settings: read-out: IC50 (molar) MEL-28
Experimental: as §2, §3, §4, §5, §6, §7

P-388 = assay: Inhibition of cell growth by counting cells, P-388; type: cell-based, mouse; settings: read-out: IC50 (molar) P-388
Experimental: as §2, §3, §4
P-388 cells were seeded into 16 mm diameter wells at 1×10^4 cells per well in 1 ml aliquots of EMEM 5% FCS containing different concentrations of the sample to be tested. A separate set of cultures without drug was seeded as control of growth, to ensure that cells remained in exponential phase of growth. All determinations are carrying out in duplicate.
as §6, §7

[1] = Homo sapiens, HT-29, 72 h, three days of incubation
[2] = Homo sapiens, A549, 72 h, three days of incubation
[3] = Homo sapiens, DU-145, 72 h, three days of incubation
[4] = Homo sapiens, SK-MEL-28, 72 h, three days of incubation
[5] = Mus musculus, P388, 72 h, three days of incubation

SMILES | IC50 (HT-29; [1]) | IC50 (A-549; [2]) | IC50 (DU-145; [3]) | IC50 (MEL-28; [4]) | IC50 (P-388; [5]) | IC50 (DU-145; Homo sapiens, DU-145, 72 h) | further results
C=CCOC(=O)NC(CSCC1c2ccccc2-c2ccccc21)C(=O)Oc1cc2c(cc1OC)[C@@]1(CS[C@@H]3c4c(OC(C)=O)c(C)c5c(c4[C@H](COC1=O)N1C3[C@H]3c4c(cc(C)c(OC)c4O)C[C@@H]([C@@H]1C#N)N3C)OCO5)NCC2 (stereo partly shown) [Compound 18] | 0.441 nM | 0.441 nM | 0.441 nM | 0.441 nM | 0.441 nM | – | –
COc1cc2c(cc1OC(=O)CCCCC1SCC3NC(=O)NC31)CCNC21CSC2c3c(OC(C)=O)c(C)c4c(c3C(COC1=O)N1C(C#N)C3Cc5cc(C)c(OC)c(O)c5C(C21)N3C)OCO4 (stereo not shown) [Compound 19] | – | – | – | – | – | – | IC50 (HT-29; three days of incubation): 0.502 nM; IC50 (A-549; three days of incubation): 0.502 nM; IC50 (DU-145; three days of incubation): 0.502 nM; IC50 (MEL-28; three days of incubation): 0.502 nM; IC50 (P-388; three days of incubation): 0.502 nM
COc1cc2c(cc1OC(=O)CCCCC1SCC3NC(=O)NC31)CCNC21CSC2c3c(OC(C)=O)c(C)c4c(c3C(COC1=O)N1C(C#N)C3Cc5cc(C)c(OC)c(OC(=O)CCCCC6SCC7NC(=O)NC76)c5C(C21)N3C)OCO4 (stereo not shown) [Compound 20] | – | – | – | – | – | – | IC50 (HT-29; three days of incubation): 8.18 nM; IC50 (A-549; three days of incubation): 8.18 nM; IC50 (DU-145; three days of incubation): 8.18 nM; IC50 (MEL-28; three days of incubation): 8.18 nM; IC50 (P-388; three days of incubation): 8.18 nM
COc1cc2c(cc1OC(=O)OCc1ccccc1)CCN[C@]21CS[C@@H]2c3c(OC(C)=O)c(C)c4c(c3[C@H](COC1=O)N1C2[C@H]2c3c(cc(C)c(OC)c3O)C[C@@H]([C@@H]1C#N)N2C)OCO4 (stereo partly shown) [Compound 27] | 0.111 nM | 0.111 nM | 0.111 nM | 0.111 nM | 0.111 nM | – | –
COc1cc2c(cc1OC(=O)OCc1ccccc1)CCN[C@]21CS[C@@H]2c3c(OC(C)=O)c(C)c4c(c3[C@H](COC1=O)N1C2[C@H]2c3c(cc(C)c(OC)c3OC(=O)OCc3ccccc3)C[C@@H]([C@@H]1C#N)N2C)OCO4 (stereo partly shown) [Compound 28] | 9.62 nM | 9.62 nM | 9.62 nM | 9.62 nM | 9.62 nM | – | –
CCOc1cc2c(cc1OC)[C@@]1(CS[C@@H]3c4c(OC(C)=O)c(C)c5c(c4[C@H](COC1=O)N1C3[C@H]3c4c(cc(C)c(OC)c4OCC)C[C@@H]([C@@H]1C#N)N3C)OCO5)NCC2 (stereo partly shown) [Compound 38] | 12.1 nM | 12.1 nM | – | 12.1 nM | 12.1 nM | 12.1 nM | –
CCCOc1cc2c(cc1OC)[C@@]1(CS[C@@H]3c4c(OC(C)=O)c(C)c5c(c4[C@H](COC1=O)N1C3[C@H]3c4c(cc(C)c(OC)c4OCCC)C[C@@H]([C@@H]1C#N)N3C)OCO5)NCC2 (stereo partly shown) [Compound 40] | 1170 nM | 1170 nM | – | 1170 nM | 1170 nM | 1170 nM | –
C=CCOc1cc2c(cc1OC)[C@@]1(CS[C@@H]3c4c(OC(C)=O)c(C)c5c(c4[C@H](COC1=O)N1C3[C@H]3c4c(cc(C)c(OC)c4O)C[C@@H]([C@@H]1C#N)N3C)OCO5)NCC2 (stereo partly shown) [Compound 41] | 1.23 nM | 1.23 nM | – | 1.23 nM | 1.23 nM | 1.23 nM | –
C=CCOc1cc2c(cc1OC)[C@@]1(CS[C@@H]3c4c(OC(C)=O)c(C)c5c(c4[C@H](COC1=O)N1C3[C@H]3c4c(cc(C)c(OC)c4OCC=C)C[C@@H]([C@@H]1C#N)N3C)OCO5)NCC2 (stereo partly shown) [Compound 42] | 11.8 nM | 11.8 nM | – | 11.8 nM | 11.8 nM | 11.8 nM | –
COc1cc2c(cc1OCc1ccccc1)CCN[C@]21CS[C@@H]2c3c(OC(C)=O)c(C)c4c(c3[C@H](COC1=O)N1C2[C@H]2c3c(cc(C)c(OC)c3O)C[C@@H]([C@@H]1C#N)N2C)OCO4 (stereo partly shown) [Compound 43] | – | – | – | – | – | 1.16 nM | IC50 (HT-29; Homo sapiens, HT-29, 72 h): 1.16 nM; IC50 (A-549; Homo sapiens, A549, 72 h): 1.16 nM; IC50 (MEL-28; Homo sapiens, SK-MEL-28, 72 h): 1.16 nM; IC50 (P-388; Mus musculus, P388, 72 h): 1.16 nM
COc1cc2c(cc1OCc1ccccc1)CCN[C@]21CS[C@@H]2c3c(OC(C)=O)c(C)c4c(c3[C@H](COC1=O)N1C2[C@H]2c3c(cc(C)c(OC)c3OCc3ccccc3)C[C@@H]([C@@H]1C#N)N2C)OCO4 (stereo partly shown) [Compound 44] | – | – | – | – | – | 105 nM | IC50 (HT-29; Homo sapiens, HT-29, 72 h): 105 nM; IC50 (A-549; Homo sapiens, A549, 72 h): 105 nM; IC50 (MEL-28; Homo sapiens, SK-MEL-28, 72 h): 105 nM; IC50 (P-388; Mus musculus, P388, 72 h): 105 nM
COc1cc2c(cc1O)CCN[C@]21CS[C@@H]2c3c(OC(C)=O)c(C)c4c(c3[C@H](COC1=O)N1C2[C@H]2c3c(cc(C)c(OC)c3OC(=O)OC(C)(C)C)C[C@@H]([C@@H]1C#N)N2C)OCO4 (stereo partly shown) [Compound 47] | 1.15 nM | 1.15 nM | 1.15 nM | 1.15 nM | 1.15 nM | – | –
COc1cc2c(cc1OC(=O)/C=C/c1ccccc1)CCN[C@]21CS[C@@H]2c3c(OC(C)=O)c(C)c4c(c3[C@H](COC1=O)N1C2[C@H]2c3c(cc(C)c(OC)c3OC(=O)OC(C)(C)C)C[C@@H]([C@@H]1C#N)N2C)OCO4 (stereo partly shown) [Compound 49] | 0.999 nM | 0.999 nM | – | 0.999 nM | 0.999 nM | 0.999 nM | –
C=CCOc1cc2c(cc1OC)[C@@]1(CS[C@@H]3c4c(O)c(C)c5c(c4[C@H](COC1=O)N1C3[C@H]3c4c(cc(C)c(OC)c4OCC=C)C[C@@H]([C@@H]1C#N)N3C)OCO5)NCC2 (stereo partly shown) [Compound 50] | 124 nM | 124 nM | 124 nM | 124 nM | 124 nM | – | –
CCCC(=O)Oc1cc2c(cc1OC)[C@@]1(CS[C@@H]3c4c(OC(C)=O)c(C)c5c(c4[C@H](COC1=O)N1C3[C@H]3c4c(cc(C)c(OC)c4O)C[C@@H]([C@@H]1O)N3C)OCO5)NCC2 (stereo partly shown) [Compound 58] | 0.12 nM | 0.12 nM | 0.12 nM | 0.12 nM | 0.12 nM | – | –
CCCCCCCCCCCCCCCC(=O)Oc1cc2c(cc1OC)[C@@]1(CS[C@@H]3c4c(OC(C)=O)c(C)c5c(c4[C@H](COC1=O)N1C3[C@H]3c4c(cc(C)c(OC)c4O)C[C@@H]([C@@H]1O)N3C)OCO5)NCC2 (stereo partly shown) [Compound 60] | 5 nM | 5 nM | 5 nM | 5 nM | 10 nM | – | –
C=CCOC(=O)NC(CSCC1c2ccccc2-c2ccccc21)C(=O)Oc1cc2c(cc1OC)[C@@]1(CS[C@@H]3c4c(OC(C)=O)c(C)c5c(c4[C@H](COC1=O)N1C3[C@H]3c4c(cc(C)c(OC)c4O)C[C@@H]([C@@H]1O)N3C)OCO5)NCC2 (stereo partly shown) [Compound 62] | 0.888 nM | 0.888 nM | 0.888 nM | 0.888 nM | 0.888 nM | – | –
COc1cc2c(cc1OC(=O)OC(C)(C)C)CCN[C@]21CS[C@@H]2c3c(OC(C)=O)c(C)c4c(c3[C@H](COC1=O)N1C2[C@H]2c3c(cc(C)c(OC)c3O)C[C@@H]([C@@H]1O)N2C)OCO4 (stereo partly shown) [Compound 66] | 0.116 nM | 0.116 nM | 0.116 nM | 0.116 nM | 0.116 nM | – | –
CCCOc1cc2c(cc1OC)[C@@]1(CS[C@@H]3c4c(OC(C)=O)c(C)c5c(c4[C@H](COC1=O)N1C3[C@H]3c4c(cc(C)c(OC)c4O)C[C@@H]([C@@H]1O)N3C)OCO5)NCC2 (stereo partly shown) [Compound 69] | 0.623 nM | 0.623 nM | 0.623 nM | 0.623 nM | 0.125 nM | – | –
COc1cc2c(cc1OCc1ccccc1)CCN[C@]21CS[C@@H]2c3c(OC(C)=O)c(C)c4c(c3[C@H](COC1=O)N1C2[C@H]2c3c(cc(C)c(OC)c3O)C[C@@H]([C@@H]1O)N2C)OCO4 (stereo partly shown) [Compound 71] | 0.588 nM | 0.588 nM | 0.588 nM | 0.588 nM | 0.588 nM | – | –

Source: patent US7759345B2, “Antitumoral derivatives of ET-743” (priority 2001, dated 2010)
